{"source": "patent US20150276568A1", "about": "(priority 2012, published 2015)", "key": {"[1]": {"assay_type": "physicochemical", "details": "extraction time varied 0-60 minutes; dihexyl ether; 900 rpm"}, "[2]": {"details": "from reference [17]; cited from earlier work"}}}
{"smiles": "CCC(=O)C(CC(C)N(C)C)(c1ccccc1)c1ccccc1", "note": "(centres unmarked) [Methadone]", "values": [{"measurement": "Extraction time for PALME system to enter equilibrium", "setting": "[1]", "result": 15, "unit": "min"}, {"measurement": "Therapeutic range", "setting": "[2]", "result": "100 to 500", "unit": "ng/mL"}]}
{"smiles": "CNCCC=C1c2ccccc2CCc2ccccc21", "note": "[Nortriptyline]", "values": [{"measurement": "Extraction time for PALME system to enter equilibrium", "setting": "[1]", "result": 30, "unit": "min"}]}
{"smiles": "CCOC(=O)C1(c2ccccc2)CCN(C)CC1", "note": "[Pethidine]", "values": [{"measurement": "Therapeutic range", "setting": "[2]", "result": "100 to 800", "unit": "ng/mL"}]}
{"smiles": "O=C(CCCN1CCC(O)(c2ccc(Cl)cc2)CC1)c1ccc(F)cc1", "note": "[Haloperidol]", "values": [{"measurement": "Extraction time for PALME system to enter equilibrium", "setting": "[1]", "result": 15, "unit": "min"}]}
